# Values of other authors in US11938222B2, “Pregabalin sustained release composition and method for preparing the same” (priority 2018, dated 2024).
# Conditions: gastrointestinal tract, humans
smiles,measurement,value
"CC(C)C[C@H](CN)CC(=O)O [pregabalin, (S)-3-aminomethyl-5-methylhexanoic acid]",average absorption window,≤ 6 h
